Assay results as given in patent publication US8227512B2, “Pharmaceutical composition containing daurinol for the prevention and treatment of cancers” (Korea Institute of Science and Technology, priority 2007, dated 2012).
“And” between values parts separate entries of the source, which are not always exact repeats. Equal entries are not always repeated. Where two headings read alike, the source gives them in different places.

Experiments:
DLD-1 [1] = experiment: MTT cancer cell growth inhibition by daurinol; assay type: cell-based; details: Homo sapiens, read-out: IC50 (concentration for 50% of cell growth inhibition)
Description: (§1) Daurinol obtained by the method of Example 2 was treated to human colon cancer cell lines HCT116 (American type of cell culture, ATCC) and DLD-1 (American type of cell culture, ATCC) to investigate the cancer cell growth inhibitory effect. The cell lines were cultured in MEM supplemented with 10% fetal bovine serum and antibiotics (penicillin and streptomycin) in a 37° C., 5% CO2 incubator. Sub-culture was performed every 2-3 days.
(§2) HCT116 and DLD-1 were inoculated in a 96-well plate at the concentration of 5×10^3 cells/well, followed by culture for 24 hours. Daurinol dissolved in DMSO (Dimethyl Sulfoxide) was treated thereto at different concentrations of 0.1-200 μg/ml for 24 and 48 hours. MTT reagent (methylthiazol-2-yl-2.5 diphenyl tetrazolium bromide) was treated thereto. 1-3 hours later, OD450 was measured to investigate cell growth.

HCT116 [2] = experiment: MTT cancer cell growth inhibition by daurinol; assay type: cell-based; details: Homo sapiens, HCT-116, read-out: IC50 (concentration for 50% of cell growth inhibition)
Description: as §1, §2

DLD-1 [3] = experiment: Cell cycle analysis, propidium iodide staining, flow cytometry; assay type: cell-based, human; details: for Cell cycle ratio, sub G0/G1 ratio (index for apoptosis): 48 hours (control 0); for Cell cycle ratio, S phase ratio: 48 hours (control 29.6)
Description: (§3) Human colon cancer cell lines HCT116 and DLD-1 were inoculated in 60×15 cm culture dishes at the concentration of 5×10^5 cells per dish, followed by culture for 24 hours. Daurinol dissolved in DMSO (Dimethyl Sulfoxide) was treated thereto at the concentrations of 5-20 μM for 24, 48 and 72 hours, respectively. The cells were harvested and washed with DPBS (Dulbecco's Phosphate Buffered Saline), followed by fixation in 70% ethanol at −20° C. for more than one day. The cells were washed again with DPBS and stained with propidium iodide for 20 minutes, and then were analyzed by flow cytometry. The propidium iodide selectively stains intracellular DNA. So, the fluorescence by propidium iodide and cell numbers was used as variants to make a graph, showing the pattern of cell cycle. According to this graph, cell cycle blocking activity of daurinol and apoptosis induced by daurinol could be confirmed.

HCT116 [4] = experiment: as above; assay type: cell-based, human; details: for Cell cycle ratio, sub G0/G1 ratio (index for apoptosis): 48 hours (control 0.1); for Cell cycle ratio, S phase ratio: 48 hours (control 33.7)
Description: as §3

HCT116 cells [5] = experiment: Apoptosis by annexin V-FITC / propidium iodide co-staining, flow cytometry; assay type: cell-based, human; details: HCT116, 5 μM daurinol, 24 and 48 hours (FIGS. 7 and 8)
Source text: The induction of apoptosis by daurinol obtained by the method of Example 2 was thoroughly examined by co-staining with annexin V—FITC (fluorescein isothiocyanate) and propidium iodide.
In normal cells, phosphatidylserine, one of the cell membrane forming phospholipids, is always heading toward inside of the cell. When early apoptosis is induced, this phosphatidylserine is exposed outside of the cell. Thus, the apoptotic cells can be detected by using green fluorescence labeled annexin V that is selectively bound to phosphatidylserine.
HCT116 cells were inoculated in 60×15 cm culture dishes at the concentration of 5×10^5 cells per dish, followed by culture for 24 hours. Daurinol dissolved in DMSO (Dimethyl Sulfoxide) was treated thereto at the concentrations of 5 μM for 24 and 48 hours. The cells were harvested and washed with DPBS (Dulbecco's Phosphate Buffered Saline). 1×10^6 cells were stained with annexin V-FITC (fluorescein isothiocyanate) and propidium iodide for 15 minutes, and then were analyzed by flow cytometry.

HCT116 cells [6] = experiment: Morphological changes under DIC light microscope; assay type: cell-based, human; details: HCT116, 5 μM daurinol
Description: Daurinol obtained by the method of Example 2 was treated to cancer cells and then morphological changes of the cancer cells were observed under DIC (differential interference contrast) light microscope.
HCT116 cells were inoculated in 60×15 cm culture dishes at the concentration of 5×10^5 cells per dish, followed by culture for 24 hours. 5 μM of daurinol dissolved in DMSO (Dimethyl Sulfoxide) was treated thereto, followed by culture for 12, 24, 48, 72 and 96 hours respectively. Morphological changes of the cells were observed under DIC light microscope.

Question: With `COc1cc2c(-c3ccc4c(c3)OCO4)c3c(cc2cc1O)COC3=O` [daurinol] as the compound, how does the IC50 (DLD-1 [1]; DLD-1, 24 hours treatment) read?
Answer: 10.5 µg/mL and 30 µM

Question: What about the IC50 (DLD-1 [1]; DLD-1, 48 hours treatment) of the same compound?
Answer: 1.4 µg/mL and 4.08 µM

Question: What about the IC50 (HCT116 [2]; HCT116, 24 hours treatment) of the same compound?
Answer: 4.4 µg/mL and 12.4 µM

Question: What about the IC50 (HCT116 [2]; HCT116, 48 hours treatment) of the same compound?
Answer: 0.7 µg/mL and 2.07 µM

Question: And the “Cell cycle ratio, sub G0/G1 ratio (index for apoptosis)” value (DLD-1 [3]; DLD-1, 5 μM daurinol)?
Answer: 0.3%

Question: What about the “Cell cycle ratio, S phase ratio” value (DLD-1 [3]; DLD-1, 5 μM daurinol) of the same compound?
Answer: 68.6%

Question: And the “Cell cycle ratio, sub G0/G1 ratio (index for apoptosis)” value (DLD-1 [3]; DLD-1, 10 μM daurinol)?
Answer: 0.6%

Question: What about the “Cell cycle ratio, S phase ratio” value (DLD-1 [3]; DLD-1, 10 μM daurinol) of the same compound?
Answer: 64.1%

Question: What about the “Cell cycle ratio, sub G0/G1 ratio (index for apoptosis)” value (DLD-1 [3]; DLD-1, 20 μM daurinol) of the same compound?
Answer: 1.4%

Question: What about the “Cell cycle ratio, S phase ratio” value (DLD-1 [3]; DLD-1, 20 μM daurinol) of the same compound?
Answer: 68.0%

Question: What about the “S phase of cell cycle versus untreated control” value (HCT116 [4]; HCT116, 5 μM daurinol, 24, 48 and 72 hours (FIG. 5)) of the same compound?
Answer: significantly increased

Question: What about the “Cell cycle ratio, sub G0/G1 ratio (index for apoptosis)” value (HCT116 [4]; HCT116, 5 μM daurinol) of the same compound?
Answer: 3.8%

Question: And the “Cell cycle ratio, S phase ratio” value (HCT116 [4]; HCT116, 5 μM daurinol)?
Answer: 52.8%

Question: And the “sub G0/G1 ratio, the index for apoptosis” value (HCT116 [4]; HCT116, 5 μM daurinol, different treatment times (FIG. 6))?
Answer: significantly increased

Question: And the “Cell cycle ratio, sub G0/G1 ratio (index for apoptosis)” value (HCT116 [4]; HCT116, 10 μM daurinol)?
Answer: 4.6%

Question: And the “Cell cycle ratio, S phase ratio” value (HCT116 [4]; HCT116, 10 μM daurinol)?
Answer: 61.1%

Question: And the “Cell cycle ratio, sub G0/G1 ratio (index for apoptosis)” value (HCT116 [4]; HCT116, 20 μM daurinol)?
Answer: 9.4%

Question: What about the “Cell cycle ratio, S phase ratio” value (HCT116 [4]; HCT116, 20 μM daurinol) of the same compound?
Answer: 60.8%

Question: What about the “Apoptosis (annexin V-FITC positive cells) versus control” value (HCT116 cells [5]) of the same compound?
Answer: significantly induced

Question: And the “Morphological changes of the cells” value (HCT116 cells [6]; after 24 hours (FIG. 9))?
Answer: the boundary of the cells became obvious

Question: What about the “Morphological changes of the cells” value (HCT116 cells [6]; after 48 hours (FIG. 9)) of the same compound?
Answer: started to detach from the bottom of culture dish
